Structures can show the parent of a compound that is named as a salt. Where only a bound is given, the exact number is not on record here.

Test [1] has as its target T1, S1P1 (Homo sapiens (Human), UniProt P21453). Description: S1P1 Binding Assay. To be noted: membranes from CHO cells expressing human S1P1; 33P-S1P ligand; rounded to two digits. On the procedure:
Membranes were prepared from CHO cells expressing human S1P1. Cells were dissociated in buffer containing 20 mM HEPES, pH 7.5, 50 mM NaCl, 2 mM EDTA and Protease Inhibitor cocktail (Roche), and disrupted on ice using the Polytron homogenizer. The homogenate was centrifuged at 20,000 rpm (48,000 G) and the supernatant was discarded. The membrane pellets were resuspended in buffer containing 50 mM HEPES, pH 7.5, 100 mM NaCl, 1 mM MgCl2, 2 mM EDTA and stored in aliquots at −80° C. after protein concentration determination. Membranes (2 μg/well) and 0.03 nM final concentration of ^33P-S1P ligand (1 mCi/ml, American Radiolabeled Chemicals) were added to the compound plates. Binding was performed for 45 minutes at room temperature, terminated by collecting the membranes onto GF/B filter plates, and radioactivity was measured by TOPCOUNT®. The competition data of the test compounds over a range of concentrations was plotted as percentage inhibition of radioligand specific binding. The IC50 is defined as the concentration of competing ligand needed to reduce specific binding by 50%.
The results in Table A were rounded to two digits.

For a further test, the target named is S1P3 (Homo sapiens (Human), UniProt Q99500). The test can be described thus: Receptor [35S] GTPγS Binding Assay, S1P3. The format is biochemical. The note with it: membranes from EDG3-Ga15-bla HEK293T cells; * detection limit 62,500 nM, ** detection limit 32,500 nM. On the procedure: (§1) Receptor [35S] GTPγS Binding Assays
(§2) Compounds were loaded in a 384 FALCON® v-bottom plate (0.5 μl/well in a 3-fold dilution). Membranes prepared from S1P1/CHO cells or EDG3-Ga15-bla HEK293T cells were added to the compound plate (40 μl/well, final protein 3 μg/well) with MULTIDROP®. [^35S]GTP (1250 Ci/mmol, Perkin Elmer) was diluted in assay buffer: 20 mM HEPES, pH7.5, 10 mM MgCl2, 150 mM NaCl, 1 mM EGTA, 1 mM DTT, 10 μM GDP, 0.1% fatty acid free BSA, and 10 μg/ml Saponin to 0.4 nM. 40 μl of the [^35S] GTP solution was added to the compound plate with a final concentration of 0.2 nM. The reaction was kept at room temperature for 45 min. At the end of incubation, all the mixtures in the compound plate were transferred to a 384 well FB filter plates via GPCR robot system. The filter plate was washed with water 4 times by using the modified manifold Embla plate washer and dried at 60° C. for 45 min. 30 μl of MicroScint 20 scintillation fluid was added to each well for counting at Packard TOPCOUNT®. EC50 is defined as the agonist concentration that corresponds to 50% of the Ymax (maximal response) obtained for each individual compound tested.
A smaller value for GTPγS S1P1 EC50 value indicated greater activity for the compound in the GTPγS S1P1 binding assay. A larger value for the GTPγS S1P3 EC50 value indicated less activity in the GTPγS S1P3 binding assay.
On the technique in general: GTPγS is a poorly hydrolysed GTP analogue; its binding reports G protein activation.

For another test, the system named is circulating lymphocytes. Description: Blood Lymphocyte Reduction Assay (BLR) in Rodents. The format is in vivo. The note with it: Rattus norvegicus, Lewis rats, oral, 4 hr, vs vehicle group. As to the method: Blood Lymphocyte Reduction Assay (BLR) in Rodents
Lewis rats were dosed orally with test article (as a solution or suspension in the vehicle) or vehicle alone (polyethylene glycol 300, “PEG300”). Blood was drawn at 4 hr by retro-orbital bleeding. Blood lymphocyte counts were determined on an ADVIA® 120 Hematology Analyzer (Siemens Healthcare Diagnostics). The results were measured as a reduction in the percentage of circulating lymphocytes as compared to the vehicle treated group at the 4 hr measurement. The results represent the average results of all animals within each treatment group (n=3-4).
The following examples were tested in the Blood Lymphocyte Reduction assay (BLR) described hereinabove and the results are shown in Table D for rats.

Test [2] has as its target T1, S1P1. Description: Receptor [35S] GTPγS Binding Assay, S1P1. The class given is biochemical. The note with it: for EC50: membranes from S1P1/CHO cells, [35S]GTP; for GTPγS S1P3/S1P1: ratio of GTPγS S1P3 EC50 to GTPγS S1P1 EC50, * and ** S1P3 value at detection limit. As to the method: as §1
as §2, with “Membranes” for “Compounds were loaded in a 384 FALCON® v-bottom plate (0.5 μl/well in a 3-fold dilution). Membranes”, “TOPCOUNT®.” for “TOPCOUNT®. EC50 is defined as the agonist concentration that corresponds to 50% of the Ymax (maximal response) obtained for each individual compound tested.”
A larger value for the GTPγS S1P3 EC50 value indicated less activity in the GTPγS S1P3 binding assay.

T1 sequence (P21453 whole entry): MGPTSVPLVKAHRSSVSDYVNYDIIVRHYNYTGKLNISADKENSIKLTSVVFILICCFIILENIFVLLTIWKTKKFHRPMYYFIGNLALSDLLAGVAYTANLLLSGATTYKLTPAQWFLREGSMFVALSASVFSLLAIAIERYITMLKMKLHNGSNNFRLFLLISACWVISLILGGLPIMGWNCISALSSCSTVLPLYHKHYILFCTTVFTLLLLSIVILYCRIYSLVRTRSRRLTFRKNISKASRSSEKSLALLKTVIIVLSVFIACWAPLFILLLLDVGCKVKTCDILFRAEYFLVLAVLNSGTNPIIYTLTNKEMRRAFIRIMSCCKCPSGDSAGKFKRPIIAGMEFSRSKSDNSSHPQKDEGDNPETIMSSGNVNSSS
Chain of S1P3 (Q99500 whole entry): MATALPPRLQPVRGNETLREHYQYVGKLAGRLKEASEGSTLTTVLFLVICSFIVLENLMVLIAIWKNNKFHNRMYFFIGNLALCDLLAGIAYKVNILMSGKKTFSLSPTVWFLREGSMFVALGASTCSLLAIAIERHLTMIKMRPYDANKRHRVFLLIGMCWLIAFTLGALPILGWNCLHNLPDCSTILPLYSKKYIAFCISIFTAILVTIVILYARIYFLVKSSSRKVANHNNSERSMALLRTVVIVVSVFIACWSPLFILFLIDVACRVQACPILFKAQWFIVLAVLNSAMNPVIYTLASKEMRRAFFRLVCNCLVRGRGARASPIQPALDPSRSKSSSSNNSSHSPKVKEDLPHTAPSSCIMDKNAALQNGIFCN

The IC50 is the midpoint of a concentration-inhibition curve. Low values mean greater potency in that assay, high ones weaker potency in that assay. The EC50 is the concentration that produces a half-maximal response. A higher EC50 goes with lower potency in that assay. A word on the inhibition in vivo: it is how much of the control response was suppressed. Low values mean little suppression, high ones strong suppression. Compound `O=C(NCCC(=O)N1CC(O)C1)C(O)c1ccc(-c2noc(-c3onc(-c4ccccc4)c3C(F)(F)F)n2)cc1` (racemic) [Example 93, (R/S)-2-Hydroxy-N-(3-(3-hydroxyazetidin-1-yl)-3-oxopropyl)-2-(4-(5-(3-phenyl-4-(trifluoromethyl)isoxazol-5-yl)-1,2,4-oxadiazol-3-yl)phenyl)acetamide] gave an IC50 on S1P1 [1] of 2.9 nM. Moreover, at S1P3, the EC50 stood at 12000 nM. The inhibition in vivo at 3 mg/kg in the test with circulating lymphocytes was 73%. Further, on S1P1 [2], the EC50 stood at 5.8 nM and the “GTPγS S1P3/S1P1” value is 2060.

In turn, `O=C(NCCO)C(O)c1ccc(-c2noc(-c3onc(-c4ccccc4)c3C(F)(F)F)n2)cc1` (single isomer, unassigned) [Example 71, 2-Hydroxy-N-(2-hydroxyethyl)-2-(4-(5-(3-phenyl-4-(trifluoromethyl)isoxazol-5-yl)-1,2,4-oxadiazol-3-yl)phenyl)acetamide] came in with an IC50 at S1P1 [1] of 0.85 nM. On S1P3, this compound registered a 50% effective concentration (EC50) of 10500 nM. Also, the inhibition in vivo at 1 mg/kg with circulating lymphocytes is 71%. In addition, on S1P1 [2], the concentration giving a half-maximal response (EC50) was 2 nM and the “GTPγS S1P3/S1P1” value came to 5234.

Regarding `C[C@@H](C#N)NC(=O)C(O)c1ccc(-c2noc(-c3onc(-c4ccccc4)c3C(F)(F)F)n2)cc1` (stereo partly drawn) [Example 40, N-((S)-1-Cyanoethyl)-2-hydroxy-2-(4-(5-(3-phenyl-4-(trifluoromethyl)isoxazol-5-yl)-1,2,4-oxadiazol-3-yl)phenyl)acetamide], the inhibition in vivo at 1 mg/kg in the test on circulating lymphocytes was found to be 80%.

At S1P1 [1], `N#CC1(NC(=O)C(O)c2ccc(-c3noc(-c4onc(-c5ccccc5)c4C(F)(F)F)n3)cc2)CC1` (single isomer, unassigned) [Example 41, N-(1-Cyanocyclopropyl)-2-hydroxy-2-(4-(5-(3-phenyl-4-(trifluoromethyl)isoxazol-5-yl)-1,2,4-oxadiazol-3-yl)phenyl)acetamide] registered an IC50 of 2.6 nM. The EC50 is 3640 nM at S1P3 and 15.7 nM on S1P1 [2]. Also, the inhibition in vivo at 1 mg/kg in the test on circulating lymphocytes was 80%. Moreover, the “GTPγS S1P3/S1P1” value on S1P1 [2] is given as 232.

`CC(C)(O)CNC(=O)CCNC(=O)C(O)c1ccc(-c2noc(-c3onc(-c4ccccc4)c3C(F)(F)F)n2)cc1` (single isomer, unassigned) [Example 6, 3-(2-Hydroxy-2-(4-(5-(3-phenyl-4-(trifluoromethyl)isoxazol-5-yl)-1,2,4-oxadiazol-3-yl)phenyl)acetamido)-N-(2-hydroxy-2-methylpropyl)propanamide] gave an IC50 at S1P1 [1] of 0.46 nM. At S1P3, this compound had an EC50 of 3130 nM. In addition, the inhibition in vivo at 3 mg/kg with circulating lymphocytes stood at 73%. For the same compound, at S1P1 [2], the EC50 was determined as 0.67 nM and the “GTPγS S1P3/S1P1” value worked out at 4679.

`CN(C)C(=O)CCNC(=O)C(O)c1ccc(-c2noc(-c3onc(-c4ccccc4)c3C(F)(F)F)n2)cc1` (single isomer, unassigned) [Example 74, 3-(2-Hydroxy-2-(4-(5-(3-phenyl-4-(trifluoromethyl)isoxazol-5-yl)-1,2,4-oxadiazol-3-yl)phenyl)acetamido)-N,N-dimethylpropanamide] had an IC50 on S1P1 [1] of 0.3 nM. The compound further came in with a 50% effective concentration (EC50) at S1P3 of 3430 nM. Also, testing at 3 mg/kg in the test on circulating lymphocytes gave an inhibition in vivo of 84%. At S1P1 [2], the EC50 was determined as 1.9 nM and the “GTPγS S1P3/S1P1” value was determined as 1805.

As to `O=C(NC1CCS(=O)(=O)C1)C(O)c1ccc(-c2noc(-c3onc(-c4ccccc4)c3C(F)(F)F)n2)cc1` (stereo not shown) [Example 31, 2-Hydroxy-2-(4-(5-(3-phenyl-4-(trifluoromethyl)isoxazol-5-yl)-1,2,4-oxadiazol-3-yl)phenyl)-N-(3,3-dioxide-tetrahydrothiophen-3-yl)acetamide], the half-maximal inhibitory concentration (IC50) on S1P1 [1] amounted to 4.5 nM. The compound also yielded a concentration for a half-maximal effect (EC50) on S1P3 of 9540 nM. The compound further came in with an inhibition in vivo at 1 mg/kg in the test with circulating lymphocytes of 54%. Also, at S1P1 [2], the half-maximal effective concentration (EC50) came out at 11.9 nM and the “GTPγS S1P3/S1P1” value stood at 802.

As to `O=C(NCc1ncc[nH]1)C(O)c1ccc(-c2noc(-c3onc(-c4ccccc4)c3C(F)(F)F)n2)cc1` (single isomer, unassigned) [Example 17, N-((1H-Imidazol-2-yl)methyl)-2-hydroxy-2-(4-(5-(3-phenyl-4-(trifluoromethyl)isoxazol-5-yl)-1,2,4-oxadiazol-3-yl)phenyl)acetamide-TFA], at S1P1 [1], the concentration for half-maximal inhibition (IC50) came to 6.7 nM. The compound also had a 50% effective concentration (EC50) on S1P3 of 6910 nM. The same compound returned an inhibition in vivo at 3 mg/kg with circulating lymphocytes of 69%. Moreover, at S1P1 [2], the 50% effective concentration (EC50) worked out at 6.7 nM and the “GTPγS S1P3/S1P1” value is given as 1031.

For `Cn1cccc1CNC(=O)C(O)c1ccc(-c2noc(-c3onc(-c4ccccc4)c3C(F)(F)F)n2)cc1` (racemic) [Example 132, (R/S)-2-hydroxy-N-((1-methyl-1H-pyrrol-2-yl)methyl)-2-(4-(5-(3-phenyl-4-(trifluoromethyl)isoxazol-5-yl)-1,2,4-oxadiazol-3-yl)phenyl)acetamide], the half-maximal inhibitory concentration (IC50) at S1P1 [1] stood at 42 nM. In addition, it took 17100 nM to reach a half-maximal effect on S1P3 (EC50). In addition, on S1P1 [2], the concentration for a half-maximal effect (EC50) was determined as 636 nM and the “GTPγS S1P3/S1P1” value is given as 27.

In the case of `O=C(NC1CNC1)C(O)c1ccc(-c2noc(-c3onc(-c4ccccc4)c3C(F)(F)F)n2)cc1` (single isomer, unassigned) [Example 30, N-(Azetidin-3-yl)-2-hydroxy-2-(4-(5-(3-phenyl-4-(trifluoromethyl)isoxazol-5-yl)-1,2,4-oxadiazol-3-yl)phenyl)acetamide-TFA], at S1P1 [1], the IC50 is 4.5 nM. Also, the EC50 at S1P3 was above 31200 nM. Moreover, at S1P1 [2], the EC50 came out at 50.9 nM and the “GTPγS S1P3/S1P1” value is > 614**.

`CNC(=O)[C@H](C)NC(=O)C(O)c1ccc(-c2noc(-c3onc(-c4ccccc4)c3C(F)(F)F)n2)cc1` (mixture of isomers) [Example 32, (R/S)-2-(2-Hydroxy-2-(4-(5-(3-phenyl-4-(trifluoromethyl)isoxazol-5-yl)-1,2,4-oxadiazol-3-yl)phenyl)acetamido)-N-methyl(S)propanamide] yielded an IC50 at S1P1 [1] of 2.6 nM. At S1P3, this compound registered an EC50 of 16100 nM. On S1P1 [2], the concentration giving a half-maximal response (EC50) was found to be 1.5 nM and the “GTPγS S1P3/S1P1” value came to 10707.

With `O=C(NCc1cnco1)C(O)c1ccc(-c2noc(-c3onc(-c4ccccc4)c3C(F)(F)F)n2)cc1` (racemic) [Example 126, (R/S)-2-hydroxy-N-(oxazol-5-ylmethyl)-2-(4-(5-(3-phenyl-4-(trifluoromethyl)isoxazol-5-yl)-1,2,4-oxadiazol-3-yl)phenyl)acetamide], the IC50 at S1P1 [1] was found to be 2.1 nM. The half-maximal effective concentration (EC50) on S1P3 came out at 20200 nM. Also, on S1P1 [2], the concentration for a half-maximal effect (EC50) was 13.6 nM and the “GTPγS S1P3/S1P1” value was 1484.

Source of the values: patent publication US8835470B2, “Mandelamide heterocyclic compounds” (Bristol-Myers Squibb Company, priority 2010, dated 2014).
